Patent US8614327B2 (Vertex Pharmaceuticals Incorporated, priority 2004, dated 2013)

Biological target: T1, ΔF508-CFTR (Homo sapiens, UniProt P13569, DEL508-508)
T1 construct: expressed in transfected cells
Experiment: Membrane potential optical (FRET/VIPR) assay, identification of potentiator compounds
Format: cell-based
Details: Table 3, assay not given; for % Activity: relative efficacy
In short: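 Double-addition potentiator screen: compound delivered in gluconate-substituted Cl^--free medium, membrane potential followed via CC2-DMPE/DiSBAC2(3) FRET on VIPR. Cells were ΔF508-CFTR-expressing NIH3T3 mouse fibroblasts, held 2 h at 37° C. then 24 h at 27° C. before assay.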

T1 sequence (P13569 with tags, fused parts or gaps DEL508-508): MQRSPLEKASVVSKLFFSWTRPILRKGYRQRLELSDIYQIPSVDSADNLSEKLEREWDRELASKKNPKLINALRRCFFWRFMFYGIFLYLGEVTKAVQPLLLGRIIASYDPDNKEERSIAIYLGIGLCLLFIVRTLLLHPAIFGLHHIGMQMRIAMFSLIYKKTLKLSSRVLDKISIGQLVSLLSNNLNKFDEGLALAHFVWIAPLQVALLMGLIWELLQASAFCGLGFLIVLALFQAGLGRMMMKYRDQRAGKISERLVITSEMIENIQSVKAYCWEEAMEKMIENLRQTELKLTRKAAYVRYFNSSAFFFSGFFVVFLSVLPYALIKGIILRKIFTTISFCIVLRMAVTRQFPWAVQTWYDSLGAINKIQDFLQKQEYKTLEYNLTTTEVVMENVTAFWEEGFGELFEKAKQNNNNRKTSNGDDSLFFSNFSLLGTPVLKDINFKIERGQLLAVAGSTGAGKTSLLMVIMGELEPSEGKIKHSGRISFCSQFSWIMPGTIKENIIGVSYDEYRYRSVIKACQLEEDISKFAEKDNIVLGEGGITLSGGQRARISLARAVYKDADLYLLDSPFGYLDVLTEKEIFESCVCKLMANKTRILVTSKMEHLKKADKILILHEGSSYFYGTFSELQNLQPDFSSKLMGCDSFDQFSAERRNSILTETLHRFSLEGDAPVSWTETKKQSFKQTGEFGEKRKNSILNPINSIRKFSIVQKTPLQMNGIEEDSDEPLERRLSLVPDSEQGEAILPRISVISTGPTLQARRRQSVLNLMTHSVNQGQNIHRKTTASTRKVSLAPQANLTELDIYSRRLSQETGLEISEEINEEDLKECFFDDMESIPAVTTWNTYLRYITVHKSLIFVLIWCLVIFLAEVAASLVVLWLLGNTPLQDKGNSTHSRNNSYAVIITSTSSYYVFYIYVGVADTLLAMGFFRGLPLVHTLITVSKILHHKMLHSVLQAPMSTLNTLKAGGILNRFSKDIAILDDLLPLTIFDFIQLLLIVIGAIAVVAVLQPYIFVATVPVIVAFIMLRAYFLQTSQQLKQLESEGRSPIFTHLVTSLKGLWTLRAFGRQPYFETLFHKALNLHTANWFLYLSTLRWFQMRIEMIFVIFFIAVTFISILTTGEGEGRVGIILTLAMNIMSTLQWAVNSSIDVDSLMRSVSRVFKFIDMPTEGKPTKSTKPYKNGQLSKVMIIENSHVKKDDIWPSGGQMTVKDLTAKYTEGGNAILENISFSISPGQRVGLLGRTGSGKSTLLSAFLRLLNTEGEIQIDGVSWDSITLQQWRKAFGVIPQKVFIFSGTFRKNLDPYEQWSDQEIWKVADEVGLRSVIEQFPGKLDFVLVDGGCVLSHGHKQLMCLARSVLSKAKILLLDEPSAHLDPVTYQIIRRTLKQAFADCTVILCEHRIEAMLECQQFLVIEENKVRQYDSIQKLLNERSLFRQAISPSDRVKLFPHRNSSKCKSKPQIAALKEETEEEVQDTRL

Row | SMILES | EC50 [µM] | % Activity
1 | Cc1cc2cc(NC(=O)c3c[nH]c4ccccc4c3=O)ccc2[nH]1 [Compound 230, N-(2-methyl-1H-indol-5-yl)-4-oxo-1H-quinoline-3-carboxamide] | 10 to 25 | ++ (between 25% to 100%)
2 | CC(C)(C)c1ccc(NC(=O)c2c[nH]c3ccccc3c2=O)cc1S(N)(=O)=O [Compound 268, 4-oxo-N-(3-sulfamoyl-4-tert-butyl-phenyl)-1H-quinoline-3-carboxamide] | 10 to 25 | ++ (between 25% to 100%)
3 | CC(=O)Nc1cccc(-c2ccccc2NC(=O)c2c[nH]c3ccccc3c2=O)c1 [Compound 25, N-[2-(3-acetylaminophenyl)phenyl]-4-oxo-1H-quinoline-3-carboxamide] | – | ++ (between 25% to 100%)
4 | CN(C)c1cccc(NC(=O)c2c[nH]c3ccccc3c2=O)c1 [Compound 418, N-(3-dimethylaminophenyl)-4-oxo-1H-quinoline-3-carboxamide] | 10 to 25 | ++ (between 25% to 100%)
5 | CC(C)(C)c1cc2cc[nH]c2cc1NC(=O)c1c[nH]c2c(C(F)(F)F)cccc2c1=O [Compound 559, 4-oxo-N-(5-tert-butyl-1H-indol-6-yl)-8-(trifluoromethyl)-1H-quinoline-3-carboxamide] | 10 to 25 | + (<25%)
6 | CCCc1ccc(N)cc1NC(=O)c1c[nH]c2ccccc2c1=O [Compound 41, N-(5-amino-2-propyl-phenyl)-4-oxo-1H-quinoline-3-carboxamide] | – | ++ (between 25% to 100%)
7 | Cc1cc(NC(=O)c2c[nH]c3ccccc3c2=O)ccc1F [Compound 257, N-(4-fluoro-3-methyl-phenyl)-4-oxo-1H-quinoline-3-carboxamide] | < 10 | ++ (between 25% to 100%)
8 | Cc1ccc(C(F)(F)F)cc1NC(=O)c1c[nH]c2ccc(F)cc2c1=O [Compound 678, 6-fluoro-N-[2-methyl-5-(trifluoromethyl)phenyl]-4-oxo-1H-quinoline-3-carboxamide] | < 10 | ++ (between 25% to 100%)
9 | CCOc1ccccc1-c1ccc(NC(=O)OC(C)(C)C)cc1NC(=O)c1c[nH]c2ccccc2c1=O [Compound 114, [4-(2-ethoxyphenyl)-3-[(4-oxo-1H-quinolin-3-yl)carbonylamino]phenyl]aminoformic acid tert-butyl ester] | < 10 | ++ (between 25% to 100%)
10 | CC(C)(C)c1cc(C(C)(C)C)c(NC(=O)c2c[nH]c3ccc(S(=O)(=O)N4CCCC4)cc3c2=O)cc1O [Compound 255, N-(5-hydroxy-2,4-ditert-butyl-phenyl)-4-oxo-6-pyrrolidin-1-ylsulfonyl-1H-quinoline-3-carboxamide] | < 10 | ++ (between 25% to 100%)
11 | O=C(Nc1cc2[nH]ccc2cc1C(F)(F)F)c1c[nH]c2ccccc2c1=O [Compound 234, 4-oxo-N-[5-(trifluoromethyl)-1H-indol-6-yl]-1H-quinoline-3-carboxamide] | < 10 | ++ (between 25% to 100%)
12 | CC(C)c1ccc(NC(=O)c2c[nH]c3ccc(F)cc3c2=O)c(C(F)(F)F)c1 [Compound 557, 6-fluoro-N-[4-isopropyl-2-(trifluoromethyl)phenyl]-4-oxo-1H-quinoline-3-carboxamide] | < 10 | ++ (between 25% to 100%)
13 | COC(=O)Nc1cc(NC(=O)c2c[nH]c3ccccc3c2=O)ccc1C(C)C [Compound 30, [2-isopropyl-5-[(4-oxo-1H-quinolin-3-yl)carbonylamino]phenyl]aminoformic acid methyl ester] | < 10 | ++ (between 25% to 100%)
14 | CC(C)(C)OC(=O)NCCc1c[nH]c2cc(NC(=O)c3c[nH]c4ccccc4c3=O)ccc12 [Compound 352, 2-[6-[(4-oxo-1H-quinolin-3-yl)carbonylamino]-1H-indol-3-yl]ethylaminoformic acid tert-butyl ester] | < 10 | ++ (between 25% to 100%)
15 | O=C(Nc1ccccc1Oc1ccccc1)c1c[nH]c2ccccc2c1=O [Compound 413, 4-oxo-N-(2-phenoxyphenyl)-1H-quinoline-3-carboxamide] | < 10 | ++ (between 25% to 100%)
16 | O=C(Nc1cccnc1)c1c[nH]c2ccccc2c1=O [Compound 168, 4-oxo-N-(3-pyridyl)-1H-quinoline-3-carboxamide] | 25 to 60 | + (<25%)
17 | Cc1cccc2c(=O)c(C(=O)Nc3ccc(C(C)C)cc3C(F)(F)F)c[nH]c12 [Compound 637, N-[4-isopropyl-2-(trifluoromethyl)phenyl]-8-methyl-4-oxo-1H-quinoline-3-carboxamide] | < 10 | + (<25%)
18 | CC(C)(C)c1ccc(NC(=O)c2c[nH]c3ccc(F)cc3c2=O)cc1F [Compound 527, 6-fluoro-N-(3-fluoro-4-tert-butyl-phenyl)-4-oxo-1H-quinoline-3-carboxamide] | < 10 | ++ (between 25% to 100%)
19 | Cc1c[nH]c2cc(NC(=O)c3c[nH]c4ccccc4c3=O)ccc12 [Compound 113, N-(3-methyl-1H-indol-6-yl)-4-oxo-1H-quinoline-3-carboxamide] | < 10 | ++ (between 25% to 100%)

Further lines, results first:

Row | EC50 [µM] | % Activity | SMILES
20 | < 10 | ++ (between 25% to 100%) | COC(=O)c1cccc(-c2cc(C(C)(C)C)c(O)cc2NC(=O)c2c[nH]c3ccccc3c2=O)c1 [Compound 231, 3-[4-hydroxy-2-[(4-oxo-1H-quinolin-3-yl)carbonylamino]-5-tert-butyl-phenyl]benzoic acid methyl ester]
21 | < 10 | ++ (between 25% to 100%) | COc1ccc(-c2ccccc2NC(=O)c2c[nH]c3ccccc3c2=O)c(OC)c1 [Compound 312, N-[2-(2,4-dimethoxyphenyl)phenyl]-4-oxo-1H-quinoline-3-carboxamide]
22 | < 10 | ++ (between 25% to 100%) | Cc1ccc(C(F)(F)F)cc1NC(=O)c1c[nH]c2cccc(O)c2c1=O [Compound 676, 5-hydroxy-N-[2-methyl-5-(trifluoromethyl)phenyl]-4-oxo-1H-quinoline-3-carboxamide]
23 | < 10 | ++ (between 25% to 100%) | CCCOc1ccc(NC(=O)c2c[nH]c3ccccc3c2=O)cc1N [Compound 368, N-(3-amino-4-propoxy-phenyl)-4-oxo-1H-quinoline-3-carboxamide]
24 | < 10 | ++ (between 25% to 100%) | COC(=O)Nc1ccc(C(C)C)c(NC(=O)c2c[nH]c3ccccc3c2=O)c1 [Compound 239, [4-isopropyl-3-[(4-oxo-1H-quinolin-3-yl)carbonylamino]phenyl]aminoformic acid methyl ester]
25 | < 10 | ++ (between 25% to 100%) | O=C(Nc1ccc(C(F)(F)F)cc1Cl)c1c[nH]c2ccccc2c1=O [Compound 532, N-[2-chloro-4-(trifluoromethyl)phenyl]-4-oxo-1H-quinoline-3-carboxamide]
26 | < 10 | ++ (between 25% to 100%) | O=C(Nc1ccccc1Cl)c1c[nH]c2ccccc2c1=O [Compound 330, N-(2-chlorophenyl)-4-oxo-1H-quinoline-3-carboxamide]
27 | < 10 | ++ (between 25% to 100%) | CC(C)(C)c1cc2cc[nH]c2cc1NC(=O)c1c[nH]c2cc(C#N)ccc2c1=O [Compound 558, 7-cyano-4-oxo-N-(5-tert-butyl-1H-indol-6-yl)-1H-quinoline-3-carboxamide]
28 | < 10 | + (<25%) | CCc1cccc2c(=O)c(C(=O)Nc3ccc(C(C)C)cc3C(F)(F)F)c[nH]c12 [Compound 682, 8-ethyl-N-[4-isopropyl-2-(trifluoromethyl)phenyl]-4-oxo-1H-quinoline-3-carboxamide]
29 | < 10 | ++ (between 25% to 100%) | O=C(Nc1csc(C(F)(F)F)c1-c1ccccc1)c1c[nH]c2ccccc2c1=O [Compound 708, 4-oxo-N-[4-phenyl-5-(trifluoromethyl)-3-thienyl]-1H-quinoline-3-carboxamide]
30 | < 10 | ++ (between 25% to 100%) | Cc1cccc(Oc2ncccc2NC(=O)c2c[nH]c3ccccc3c2=O)c1C [Compound 206, N-[2-(2,3-dimethylphenoxy)-3-pyridyl]-4-oxo-1H-quinoline-3-carboxamide]
31 | < 10 | ++ (between 25% to 100%) | Cc1cccc2[nH]cc(C(=O)Nc3ccc(N4[C@H](C)CC[C@@H]4C)cc3C(F)(F)F)c(=O)c12 [Compound 592, N-(4-((2R,5S)-2,5-dimethylpyrrolidin-1-yl)-2-(trifluoromethyl)phenyl)-5-methyl-4-oxo-1,4-dihydroquinoline-3-carboxamide]
32 | < 10 | +++ (>100%) | O=C(Nc1cccc2c1CCCC2)c1c[nH]c2ccccc2c1=O [Compound 286, 1,4-dihydro-N-(1,2,3,4-tetrahydronaphthalen-5-yl)-4-oxoquinoline-3-carboxamide]
33 | < 10 | ++ (between 25% to 100%) | O=C(Nc1cc(O)cc(C(F)(F)F)c1)c1c[nH]c2cccc(O)c2c1=O [Compound 599, 5-hydroxy-N-[3-hydroxy-5-(trifluoromethyl)phenyl]-4-oxo-1H-quinoline-3-carboxamide]
34 | < 10 | ++ (between 25% to 100%) | CC(C)(C)c1ccc(O)cc1NC(=O)c1c[nH]c2ccc(F)cc2c1=O [Compound 665, 6-fluoro-N-(5-hydroxy-2-tert-butyl-phenyl)-4-oxo-1H-quinoline-3-carboxamide]
35 | < 10 | ++ (between 25% to 100%) | O=C(Nc1ccc(N2CC[C@@H](O)C2)cc1C(F)(F)F)c1c[nH]c2ccccc2c1=O [Compound 705, (R)-N-(4-(3-hydroxypyrrolidin-1-yl)-2-(trifluoromethyl)phenyl)-4-oxo-1,4-dihydroquinoline-3-carboxamide]
